How the values were obtained:
Assay type in all cases: cell-based, human
A2058 melanoma cells [1] = experiment: Apoptosis assay, annexin V-FITC flow cytometry; conditions: 10^−5 M, 24 h, average of two parallels ± S.D., control 10.6 ± 0.51
Procedure: (§1) The pro-apoptotic effects of conjugates and Dau at 10^−5 M concentration was studied after 24 h incubation by flow cytometry using FITC-annexin V (Sony Biotechnology, Weybridge, UK) and a novel image cytometer (NucleoCounter® NC-250^TM, ChemoMetec A/S, Lillerød, Denmark) using Vitabright-48™ (ChemoMetec A/S, Lillerød, Denmark), a cell permeable dye that reacts with thiol groups to form a fluorescent product. […]
(§2) normalizing the viability of conjugate-treated cells with that of the control cells, and these indices of groups pretreated with inhibitors or DMSO were statistically compared.
(§3) The apoptotic effect of conjugates and Dau was determined by a FACSCalibur flow cytometer (Becton Dickinson, San Jose, CA, USA) after staining with annexin V-FITC (Sony Biotechnology, Weybridge, UK) and NucleoCounter® NC-250™ cell analyzer (ChemoMetec A/S, Lillerød, Denmark) using Vitabright-48™, a cell-permeable fluorescent dye (ChemoMetec A/S, Lillerød, Denmark). […]
(§4) The cells were dissociated by a TrypLE reagent (Thermo Fisher Scientific, Waltham, MA, USA) composed of recombinant enzyme protecting the cell’s surface proteins and it was followed by a centrifugation and a washing step with PBS. […] Before labeling with annexin V-FITC, the cells were measured by a flow cytometer for controlling the autofluorescence of cells in case of each treatment group. […]

A2058 melanoma cells [2] = experiment: Apoptosis assay, Vitabright-48 thiol staining, NucleoCounter NC-250 image cytometer; conditions: 10^−5 M, 24 h, NucleoCounter NC-250, average of two parallels ± S.D., control 8.7 ± 0.72
Procedure: as §1, §2, §3, §4

A2058 melanoma cells [3] = experiment: Cell cycle analysis, propidium iodide flow cytometry; conditions: 10^−5 M, 24 h
Procedure: Since the conjugates had no or minor apoptotic effect, the cell cycle kinetics of the cells treated with GnRH-III-based conjugates was also investigated to reveal the mechanism of growth inhibition of these conjugates. The distribution of the control and treated cells in the different cell cycle phases was analyzed by measurements of relative DNA contents of individual cells by flow cytometry after propidium iodide (Sigma-Aldrich, St. Louis, MO, USA) staining. […] In parallel, a decrease in the proportions of cells in G1/G0 and G2/M phase and an increase in the percentage of S phase cells were also observed.
Figure 4 Effects of conjugates and daunorubicin (Dau) on cell cycle progression of A2058 melanoma cells. The model cell was incubated with the compounds at 10^−5 M concentration for 24 h. Results are expressed as a percentage of cells in the sub-G1 area and the major phases (G1/G0, S and G2/M) of the cell cycle. Data shown in the figure represent mathematical averages of two parallel measurements. […]
Jose, CA, USA) was used to measure the DNA content of cells with propidium iodide (Sigma-Aldrich, St. Louis, MO, USA) intercalated stoichiometrically to the double-stranded […]
A2058 cells were seeded, treated and harvested in the same way described in section ‘Apoptosis assay’; then, the cells were fixed in ice-cold 70% ethanol and kept at −20 °C for 24 h. The samples were centrifuged and resuspended in RNase (100 μg/ml, Sigma-Aldrich, St. Louis, MO, USA) containing citric acid/sodium phosphate buffer (pH = 7.8). Propidium iodide was added to the sample in 10 μg/ml concentration right before the flow cytometric measurements collecting at 25000 cells/sample.
Data were analyzed by CellQuest Pro and Flowing 2.5.1 (Turku Centre of Biotechnology, Turku, Finland) software. For aggregate/debris discrimination, FL2-Width vs FL2-Area plot […]
values to each population of cell cycle stages.
Measurement of cell adhesion […]
xCELLigence SP System ( ACEA Biosciences, San Diego, CA, USA).
The adhesion assay, analogous to the description in [5], was started with a background measurement as mentioned above in the section “Cell proliferation and cytotoxicity measurement”. In the next steps, the compounds were added in the concentration range of 10−8–10−5 M and the cells were loaded into the wells at a concentration of 10^4 cells/well. […]
NeuroProbe® MBB 96 chamber (NeuroProbe, Gaithersburg, MD, USA) by using polycarbonate filters with pore size 8 μm. To quantify the number of the chemotactically active cells, the alamarBlue-assay was applied as explained above. The ‘Chemotaxis index (Chtx. ind.) plotted in Figure 6 was calculated from the average of 8 parallel measurements and expressed as a percentage of control.

SMILES: COc1cccc2c1C(=O)c1c(O)c3c(c(O)c1C2=O)C[C@@](O)(C(C)=O)C[C@@H]3O[C@H]1C[C@H](N)[C@H](O)[C@H](C)O1 [daunorubicin]
- the ratio of apoptotic cells, annexin V (A2058 melanoma cells [1]): 33.6 ± 5.51 %
- the ratio of apoptotic cells, Vitabright-48™ (A2058 melanoma cells [2]): 30.9 ± 0.68 %
- percentage of S phase cells (A2058 melanoma cells [3]; compared with control): increase
- percentage of cells in sub-G1 phase (A2058 melanoma cells [3]; control 3.4%, average of two parallels): 14.1%
- percentage of cells in G2/M phase (A2058 melanoma cells [3]; control 34.3%, average of two parallels): decrease
- percentage of cells in G1/G0 phase (A2058 melanoma cells [3]; control 47.6%, average of two parallels): decrease

— PMC6178282, “Comparative cell biological study of in vitro antitumor and antimetastatic activity on melanoma cells of GnRH-III-containing conjugates modified with short-chain fatty acids” (Beilstein Journal of Organic Chemistry, 2018)
